According to US20150087606A1, “PHARMACEUTICAL COMPOSITION FOR PREVENTING OR TREATING AMYLOID BETA PEPTIDE-ASSOCIATED DISEASES OR CONDITIONS” (Sinphar Tian-Li Pharmaceutical Co., Ltd. (Hangzhou), priority 2011, published 2015):
“Also recorded” adds a separate entry of the source.

Assays:
[1] = tested on: extracellular Aβ1-40 accumulation, SH-SY5Y cells; assay: Effect of each test sample on extracellular Aβ1-40 accumulation (Human Aβ1-40 immunoassay of the medium); assay type: cell-based
Procedure: Wild-type human neuroblastoma cells (SH-SY5Y) were cultured in Eagle's Minimum essential Medium (EMEM)/Ham's F12 medium (1:1 mixture) (containing 10% FBS, 10 units/ml penicillin, 10 μg/ml Streptomycin). Wild-type mouse neuroblastoma Neuro-2a cells were cultured in minimum essential medium (MEM) (containing 10% FBS, 10 units/ml penicillin, 10 μg/ml Streptomycin).
The medium of the wild-type human neuroblastoma SH-SY5Y cells in Example 1 were switched into chemical defined medium (EMEM/F12 medium (Cat. No. 12500-062), Hepes 5 mM, Glucose 0.6%, NaHCO3 3 mM, Glutamine 2.5 mM, Insulin 25 μg/ml, Transferin 100 μg/ml, Progestrone 20 nM, Putrescine 60 μM, Sodium selenite 30 nM, Heparin 2 μg/ml). Each well contained 1×10^5 SH-SY5Y cells in 300 μl of culture medium. Thirty minutes later, each well was treated with the test samples given in Table 1 respectively at a total concentration of 50 μg/ml for 24 hours. After that, the level of Aβ1-40 in the medium of each well was analyzed by Human Aβ1-40 immunoassay kits (Catalog #KHB3482 Invitrogen).
Human neuroblastoma SH-SY5Y cells cause extracellular accumulation of Aβ. […] The results were shown in mean ± standard deviation (SD) form. Significant difference between the Vehicle control group and the test sample-treated groups were indicated by * * * , P<0.001.

[2] = molecular target: Human Aβ1-42 (Homo sapiens, UniProt P05067); assay: Effect of each test sample on Aβ1-42 oligomerization (thioflavin T fluorescence); assay type: biochemical; settings: 50 μg/ml, 4° C., 24 hours, thioflavin T fluorescence (FIG. 2)
Sequence of Human Aβ1-42 (P05067 672-713 limits assumed): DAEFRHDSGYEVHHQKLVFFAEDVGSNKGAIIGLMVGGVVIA
Procedure: Dried Human Aβ1-42 was taken out from the refrigerator and equilibrated to room temperature. Aβ1-42 was dissolved in 1,1,1,3,3,3-Hexa-fluro-2-propanol (HFIP) to a concentration of 1 mM, and was then placed at room temperature for one hour. The Aβ1-42/HFIP solution was aliquoted by Hamilton syringe, and was then dried under a stream of nitrogen gas, followed by storing at a temperature of −20° C. Aβ1-42 treated with HFIP was dissolved in PBS, and was vibration-incubated with treatment of each test sample at a concentration of 50 μg/ml and at 4° C. for 24 hours to prepare Aβ1-42 oligomers. The level of Aβ1-42 oligomerization was analyzed by thioflavin T fluorescence (Ex=450 nm, Em=482 nm). […] That is to say, these pharmaceutical compositions can be used to prevent or treat Aβ-associated diseases or conditions.

Row | Structure (SMILES) | reduces the level of Aβ1-40 in the medium ([1]; total concentration of 50 μg/ml, 24 hours, based on Vehicle control group (FIG. 1)) | activity on reducing extracellular Aβ1-40 accumulation (in words) ([1]; total 50 μg/ml, 24 hours (FIG. 1)) | activity on inhibiting Aβ1-42 oligomerization (in words) [2]
1 | C[C@@H]1O[C@@H](O[C@@H]2[C@@H](O)[C@H](OCCc3ccc(O)c(O)c3)O[C@H](CO)[C@H]2OC(=O)/C=C/c2ccc(O)c(O)c2)[C@H](O)[C@H](O)[C@H]1O [A, Acteoside] | about 10% |  | 
2 | C[C@@H]1O[C@@H](O[C@@H]2[C@@H](O)[C@H](OCCc3ccc(O)c(O)c3)O[C@H](COC(=O)/C=C/c3ccc(O)c(O)c3)[C@H]2O)[C@H](O)[C@H](O)[C@H]1O [I, Isoacteoside] |  | significant activity; also recorded: better activity | better activity
